Experimental data reported in patent US12569554B2, “Triterpene saponin analogues” (priority 2017, dated 2026).
Read-outs that look alike come from different tables or passages of the source.

Key:
[1] = Stability at 37° C.; assay type: physicochemical; settings: for degraded: after two weeks at 37° C.
Method: (§3) Natural and synthetic QS-21 (SQS-21 or SAPONEX®) and a variety of analogs were tested for hemolytic activity.

[2] = Hemolytic assay; assay type: cell-based
Method: as §3

[3] = tested on: mice; assay: Adacel pharm/tox study, serology with TiterQuil-1055 or QS-21; assay type: in vivo; settings: for augmentation of antibody levels compared to immunization with Adacel alone: adjuvant given with Adacel
Method: (§1) Adacel doses containing 1, 0.3, and 0.1 mcg of pertussis toxin per mouse were administered subcutaneously (SC, with no immunological adjuvant), using 2 vaccinations 4 weeks apart, resulting in a mean of 1,618 mcg, 898 mcg, and 107 mcg respectively of anti-PT antibody per ml of serum drawn 2 weeks after the second vaccination. The 0.1 mcg dose was indistinguishable from unvaccinated controls (96 mcg/ml). A 0.5 mcg dose of Adacel was selected for a pharmacology/toxicology (pharm/tox) study. The serological results for this study are summarized in FIG. 3 of the present application.
(§2) A pharm/tox study was conducted in 7 groups of 5 mice: 1) PBS alone, 2) 50 mcg TiterQuil-1055, 3) 20 mcg QS-21, 4) Adacel 2.5 mcg pertussis toxin (1/5 the human dose), 5) Adacel+QS-21 (20 mcg QS-21), 6) Adacel+TiterQuil-1055 (50 mcg), 7) Adacel+TiterQuil-1055 (50 mcg). Mice were vaccinated SC on days 1 and 15, weighed daily, and bled and sacrificed on day 22, except for group 7 which was sacrificed on day 29. […] Histopathology of 33 different tissues was performed on all mice. Detected abnormalities were restricted to the liver. […] This abnormality was short lived and was no detected in group 7, which was sacrificed one week after groups 1-6.

[4] = tested on: mice; assay: Engerix-B immunogenicity, anti-HBsAg antibody; assay type: in vivo
Method: Experiments were conducted with Engerix-B (HBV adult vaccine) in groups of 10 mice. Initially 3 mcg, 1 mcg, 0.3 mcg, 0.1 mcg, and 0.03 mcg Engerix-B doses per mouse were tested.

[5] = tested on: mice; assay: Pilot pharmacology/toxicology study: blood chemistry, hematology, histopathology; assay type: in vivo; settings: 50 mcg TiterQuil-1055, 20 mcg QS-21, Adacel 2.5 mcg pertussis toxin, alone or combined; for changes in blood chemistry or hematology results: SC days 1 and 15; for liver histopathology, hepatocellular cytoplasmic vacuolization: SC days 1 and 15, sacrificed day 22
Method: as §2

[6] = assay type: in vivo, mice; settings: for body weight loss: 50 mcg TiterQuil-1055, 20 mcg QS-21
Method: as §1, §2

[7] = Engerix-B study, body weight; assay type: in vivo, mice
[8] = Companion toxicity study, body mass; assay type: in vivo, mice; settings: three days after immunization
Method: as §3

[9] = tested on: humans; settings: cited from earlier work
[10] = groups of 5 mice, 2 weeks after second SC immunization

CC1O[C@@H](OC2C(O)[C@@H](NC(=O)CCCCCCCCCCC(=O)O)C(CO)O[C@H]2OC(=O)[C@]23CCC(C)(C)CC2C2=CCC4C5(C)CC[C@H](O)C(C)(C=O)C5CCC4(C)C2(C)CC3O)C(O)C(O)[C@H]1O[C@@H]1OC[C@@H](O)C(O)C1O (stereo partly shown) [Compound I-4]
degraded [1]: without detectable degradation | stability ([1]; compared with QS-21): increased stability | hemolytic activity [2]: much lower or undetectable hemolytic activity | antibody levels 2 weeks later ([3]; Adacel with TiterQuil-1055, a further 2 weeks later): further increased | antibody levels ([3]; groups of 5 mice, 2 weeks after second SC immunization, Adacel alone or Adacel with TiterQuil-1055): 52,344 | augmentation of antibody levels compared to immunization with Adacel alone [3, 10]: 70 fold | serologic effect ([4]; 10 mcg TiterQuil-1055 mixed with 0.3 mcg Engerix-B): no serologic effect | increase in antibody levels compared to Engerix-B alone ([4]; 30 mcg TiterQuil-1055 mixed with 0.3 mcg Engerix-B): > 6 fold | increase in antibody levels compared to Engerix-B alone ([4]; 100 mcg TiterQuil-1055 mixed with 0.3 mcg Engerix-B): 5 fold | antibody response at higher adjuvant doses ([4]; TiterQuil-1055 doses above 50 mcg per mouse): Lack of antibody increase or decreasing responses | changes in blood chemistry or hematology results [5]: No changes | liver histopathology, hepatocellular cytoplasmic vacuolization [5]: No changes at all | weight loss ([6]; 50 mcg TiterQuil-1055, 20 mcg QS-21, Adacel 2.5 mcg pertussis toxin, alone or combined, SC days 1 and 15, weighed daily): no other mice | body weight loss [6]: No weight loss | weight loss ([7]; 30 mcg TiterQuil-1055 dose): No weight loss | weight loss ([7]; 100 mcg TiterQuil-1055 dose): 4% | weight loss ([7]; 300 mcg TiterQuil-1055 dose): 5% | body mass gained on average [8]: 5%

QS-21 [reference compound]
degraded [1]: 20% | hemolytic activity [2]: highly hemolytically active | augmentation of antibody levels compared to immunization with Adacel alone [3, 10]: 10 fold | tolerated dose in cancer patients ([9]; cancer patients, above it local and systemic side effects): 100 to 150 µg | maximum dose for healthy patients ([9]; healthy patients): ~50 µg | highest practical tolerable dose ([9]; well (non-cancer) adult and child recipients): 25 to 50 µg | changes in blood chemistry or hematology results [5]: No changes | liver histopathology, hepatocellular cytoplasmic vacuolization [5]: Mild vacuolar changes | body weight loss [6]: 8-9% | body mass lost on average ([8]; 20 mcg QS-21): 8-10%
